Measured values reported in BindingDB's records for doi:10.7270/Q2891498 (Nmmlsc, 2009).

Biological target: T1, GTPase KRas [1-37] (Homo sapiens, UniProt G3V5T7)
T1 construct: 1-37
Assay: wildtype Ras GTP binding inhibitors, SAR follow-up, biochemical, additional analogs, multiplex flow cytometry, Ki (AID 2038)

T1 sequence (G3V5T7 whole entry): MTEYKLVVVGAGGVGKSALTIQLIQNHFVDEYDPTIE

Ki: 5.85 µM
SMILES: O=C1N=c2c(Br)cccc2=C1c1[nH]c2ccccc2c1NO [7-bromanyl-3-[3-(oxidanylamino)-1H-indol-2-yl]indol-2-one]
